Values after ≈ are worked out from the molar mass of the structure shown.
Columns and labels:
[1] = system: S. aureus (ATCC 29213); experiment: Time-kill assay (bactericidal activity); type: cell-based
Experimental: This inoculum preparation was used for all experiments. Time-kill assay: A time-kill assay was performed to monitor the bactericidal activity of propionic acid (PA). […] Assays were performed in 100 μl volumes in 96-well plates and incubated at 37° C. in a sealed bag to prevent evaporation. […] Bacterial growth was determined by counting CFUs. […] The assay was setup and evaluated as described above.

[2] = system: S. aureus (ATCC 29213); experiment: Minimal inhibitory concentration (MIC) assay, microbroth dilution (CLSI M100-S22); type: cell-based; settings: Staphylococcus aureus, ATCC29213; no esterase added; 10% DMSO; 16 hours at 37° C.; first well showing ≥90% reduction in growth; read-out: MIC against S. aureus
[3] = system: S. aureus; settings: Shu et al. 2013; Wang et al. 2014; cited from earlier work

CCC(=O)O [PA, propionic acid]
time after which bactericidal against S. aureus ([1]; 4× the MIC (MIC 15 mM), sampled at 0, 1, 7, 24 hours, FIG. 2): 7 h | time after which S. aureus is completely killed ([1]; 4× the determined MIC, 0.2 mg/ml porcine liver esterase, sampled at 0, 1, 5, 24 hours, FIG. 4): 5 h | MIC [2]: 15 mM (≈ 1110 µg/mL) | growth of S. aureus (literature) [3]: inhibit growth of S. aureus
